Biological target: recombinant human SAE enzyme (Homo sapiens (Human), UniProt Q9UBT2)
Assay: SAE HTRF enzyme assay
Format: biochemical
Details: for Percent Inhibition: Concentration 0.111 μM; for IC50: class symbols A/B/C
In short: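 First, recombinant human SAE (0.11 nM) transfers Sumo-Flag onto Ubc9-GST using 0.5 μM ATP for 105 min at 24° C. Next, EDTA-containing detection buffer with labelled anti-Flag and anti-GST antibodies is added for 2 h. Finally, FRET is quantified and percent inhibition or IC50 derived.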

Chain of recombinant human SAE enzyme (Q9UBT2 whole entry): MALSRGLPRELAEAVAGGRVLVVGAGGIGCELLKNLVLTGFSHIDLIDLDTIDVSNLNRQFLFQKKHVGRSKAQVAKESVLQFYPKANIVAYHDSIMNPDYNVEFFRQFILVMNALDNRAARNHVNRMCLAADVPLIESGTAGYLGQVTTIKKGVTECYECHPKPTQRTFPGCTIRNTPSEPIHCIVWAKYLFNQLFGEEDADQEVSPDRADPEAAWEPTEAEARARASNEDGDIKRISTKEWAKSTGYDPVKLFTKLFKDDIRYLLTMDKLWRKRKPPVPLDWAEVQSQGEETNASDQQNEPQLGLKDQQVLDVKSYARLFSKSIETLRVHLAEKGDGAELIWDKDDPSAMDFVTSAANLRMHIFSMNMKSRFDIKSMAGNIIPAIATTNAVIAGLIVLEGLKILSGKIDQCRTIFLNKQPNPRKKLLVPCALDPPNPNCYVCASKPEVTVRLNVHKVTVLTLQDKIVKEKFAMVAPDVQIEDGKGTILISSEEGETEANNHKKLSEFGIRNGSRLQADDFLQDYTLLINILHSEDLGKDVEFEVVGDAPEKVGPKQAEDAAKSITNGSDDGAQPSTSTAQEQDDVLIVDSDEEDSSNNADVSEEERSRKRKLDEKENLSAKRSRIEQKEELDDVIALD
Chain of recombinant human SAE enzyme (Q9UBE0 whole entry partner): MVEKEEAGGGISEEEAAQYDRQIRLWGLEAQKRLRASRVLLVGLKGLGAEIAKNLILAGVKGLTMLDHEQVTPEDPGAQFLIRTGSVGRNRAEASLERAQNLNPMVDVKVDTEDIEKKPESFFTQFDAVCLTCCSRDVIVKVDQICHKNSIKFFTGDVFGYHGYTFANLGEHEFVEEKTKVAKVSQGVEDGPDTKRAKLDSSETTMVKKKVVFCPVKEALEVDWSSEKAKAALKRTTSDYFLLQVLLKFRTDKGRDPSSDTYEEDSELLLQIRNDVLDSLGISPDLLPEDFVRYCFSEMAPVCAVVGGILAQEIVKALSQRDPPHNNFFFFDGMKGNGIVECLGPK

`NS(=O)(=O)OC[C@H]1C[C@@H](Nc2ncncc2C(=O)c2cc([C@@H]3OCCc4cccnc43)c(Cl)s2)C[C@@H]1O` (single isomer, unassigned) [I-266b, [(1R,2S,4R)-4-{[5-({5-chloro-4-[(8S)-5,8-dihydro-6H-pyrano[3,4-b]pyridin-8-yl]-2-thienyl}carbonyl)pyrimidin-4-yl]amino}-2-hydroxycyclopentyl]methyl sulfamate or [(1R,2S,4R)-4-{[5-({5-chloro-4-[(8R)-5,8-dihydro-6H-pyrano[3,4-b]pyridin-8-yl]-2-thienyl}carbonyl)pyrimidin-4-yl]amino}-2-hydroxycyclopentyl]methyl sulfamate] was tested, and the “Percent Inhibition” value was 100 and the IC50 was < 0.01 µM.

`NS(=O)(=O)OC[C@H]1C[C@@H](Nc2ncncc2C(=O)c2cc([C@@H]3OCCc4ccc(F)cc43)cs2)C[C@@H]1O` (single isomer, unassigned) [I-267, [(1R,2S,4R)-4-{[5-({4-[(1R)-7-Fluoro-3,4-dihydro-1H-isochromen-1-yl]-2-thienyl}carbonyl)pyrimidin-4-yl]amino}-2-hydroxycyclopentyl]methyl sulfamate or [(1R,2S,4R)-4-{[5-({4-[(1S)-7-Fluoro-3,4-dihydro-1H-isochromen-1-yl]-2-thienyl}carbonyl)pyrimidin-4-yl]amino}-2-hydroxycyclopentyl]methyl sulfamate] was tested, and the “Percent Inhibition” value was 97 and the IC50 was < 0.01 µM.

With `NS(=O)(=O)OC[C@H]1C[C@@H](Nc2ncncc2C(=O)c2cc([C@@H]3OCCc4ccc(F)cc43)cs2)C[C@@H]1O` (single isomer, unassigned) [I-267a, [(1R,2S,4R)-4-{[5-({4-[(1R)-7-fluoro-3,4-dihydro-1H-isochromen-1-yl]-2-thienyl}carbonyl)pyrimidin-4-yl]amino}-2-hydroxycyclopentyl]methyl sulfamate or [(1R,2S,4R)-4-{[5-({4-[(1S)-7-fluoro-3,4-dihydro-1H-isochromen-1-yl]-2-thienyl}carbonyl)pyrimidin-4-yl]amino}-2-hydroxycyclopentyl]methyl sulfamate] the “Percent Inhibition” value was 65 and the IC50 was 0.01 to 0.1 µM.

In the case of `NS(=O)(=O)OC[C@H]1C[C@@H](Nc2ncncc2C(=O)c2cc([C@@H]3OCCc4ccc(F)cc43)cs2)C[C@@H]1O` (single isomer, unassigned) [I-267b, [(1R,2S,4R)-4-{[5-({4-[(1R)-7-fluoro-3,4-dihydro-1H-isochromen-1-yl]-2-thienyl}carbonyl)pyrimidin-4-yl]amino}-2-hydroxycyclopentyl]methyl sulfamate or [(1R,2S,4R)-4-{[5-({4-[(1S)-7-fluoro-3,4-dihydro-1H-isochromen-1-yl]-2-thienyl}carbonyl)pyrimidin-4-yl]amino}-2-hydroxycyclopentyl]methyl sulfamate], the “Percent Inhibition” value is reported as 100 and the IC50 is reported as < 0.01 µM.

For `NS(=O)(=O)OC[C@H]1C[C@@H](Nc2ncncc2C(=O)c2cc([C@@H]3OCCc4ccc(Br)cc43)cs2)C[C@@H]1O` (single isomer, unassigned) [I-268a, [(1R,2S,4R)-4-{[5-({4-[(1R)-7-bromo-3,4-dihydro-1H-isochromen-1-yl]-2-thienyl}carbonyl)pyrimidin-4-yl]amino}-2-hydroxycyclopentyl]methyl sulfamate or [(1R,2S,4R)-4-{[5-({4-[(1S)-7-bromo-3,4-dihydro-1H-isochromen-1-yl]-2-thienyl}carbonyl)pyrimidin-4-yl]amino}-2-hydroxycyclopentyl]methyl sulfamate], the “Percent Inhibition” value was 50 and the IC50 was 0.1 to 1 µM.

`NS(=O)(=O)OC[C@H]1C[C@@H](Nc2ncncc2C(=O)c2cc([C@@H]3OCCc4ccc(Br)cc43)cs2)C[C@@H]1O` (single isomer, unassigned) [I-268b, [(1R,2S,4R)-4-{[5-({4-[(1R)-7-bromo-3,4-dihydro-1H-isochromen-l-yl]-2-thienyl}carbonyl)pyrimidin-4-yl]amino}-2-hydroxycyclopentyl]methyl sulfamate or [(1R,2S,4R)-4-{([5-({4-[(1S)-7-bromo-3,4-dihydro-1H-isochromen-1-yl]-2-thienyl}carbonyl)pyrimidin-4-yl]amino}-2-hydroxycyclopentyl]methyl sulfamate] was tested, and the “Percent Inhibition” value was 102 and the IC50 was < 0.01 µM.

With `Cc1sc(C(=O)c2cncnc2N[C@@H]2C[C@H](COS(N)(=O)=O)[C@@H](O)C2)cc1[C@@H]1OCCc2ccsc21` (single isomer, unassigned) [I-269a, [(1R,2S,4R)-4-{[5-({4-[(7S)-4,7-dihydro-5H-thieno[2,3-c]pyran-7-yl]-5-methyl-2-thienyl}carbonyl)pyrimidin-4-yl]amino}-2-hydroxycyclopentyl]methyl sulfamate or [(1R,2S,4R)-4-{[5-({4-[(7R)-4,7-dihydro-5H-thieno[2,3-c]pyran-7-yl]-5-methyl-2-thienyl}carbonyl)pyrimidin-4-yl]amino}-2-hydroxycyclopentyl]methyl sulfamate] the “Percent Inhibition” value was 101 and the IC50 was < 0.01 µM.

For `Cc1sc(C(=O)c2cncnc2N[C@@H]2C[C@H](COS(N)(=O)=O)[C@@H](O)C2)cc1[C@@H]1OCCc2ccsc21` (single isomer, unassigned) [I-269b, [(1R,2S,4R)-4-{[5-({4-[(7S)-4,7-dihydro-5H-thieno[2,3-c]pyran-7-yl]-5-methyl-2-thienyl}carbonyl)pyrimidin-4-yl]amino}-2-hydroxycyclopentyl]methyl sulfamate or [(1R,2S,4R)-4-{[5-({4-[(7R)-4,7-dihydro-5H-thieno[2,3-c]pyran-7-yl]-5-methyl-2-thienyl}carbonyl)pyrimidin-4-yl]amino}-2-hydroxycyclopentyl]methyl sulfamate], the “Percent Inhibition” value was 95 and the IC50 was 0.01 to 0.1 µM.

In the case of `Cc1oc(C(=O)c2cncnc2N[C@@H]2C[C@H](COS(N)(=O)=O)[C@@H](O)C2)cc1[C@@H]1OCCc2ccc(Cl)cc21` (single isomer, unassigned) [I-270a, {(1R,2S,4R)-4-[(5-{4-[(1R)-7-chloro-3,4-dihydro-1H-isochromen-1-yl]-5-methyl-2-furoyl}pyrimidin-4-yl)amino]-2-hydroxycyclopentyl}methyl sulfamate or {(1R,2S,4R)-4-[(5-{4-[(1S)-7-chloro-3,4-dihydro-1H-isochromen-1-yl]-5-methyl-2-furoyl}pyrimidin-4-yl)amino]-2-hydroxycyclopentyl}methyl sulfamate], the “Percent Inhibition” value is reported as 79 and the IC50 is reported as 0.01 to 0.1 µM.

For `Cc1oc(C(=O)c2cncnc2N[C@@H]2C[C@H](COS(N)(=O)=O)[C@@H](O)C2)cc1[C@@H]1OCCc2ccc(Cl)cc21` (single isomer, unassigned) [I-270b, {(1R,2S,4R)-4-[(5-{4-[(1R)-7-chloro-3,4-dihydro-1H-isochromen-1-yl]-5-methyl-2-furoyl}pyrimidin-4-yl)amino]-2-hydroxycyclopentyl}methyl sulfamate or {(1R,2S,4R)-4-[(5-{4-[(1S)-7-chloro-3,4-dihydro-1H-isochromen-1-yl]-5-methyl-2-furoyl}pyrimidin-4-yl)amino]-2-hydroxycyclopentyl}methyl sulfamate], the “Percent Inhibition” value was 99 and the IC50 was < 0.01 µM.

`Cc1sc(C(=O)c2cncnc2N[C@@H]2C[C@H](COS(N)(=O)=O)[C@@H](O)[C@@H]2F)cc1[C@@H]1OCCc2ccccc21` (single isomer, unassigned) [I-271a, [(1R,2R,3R,4R)-4-{([5-({4-[(1R)-3,4-dihydro-1H-isochromen-1-yl]-5-methyl-2-thienyl)carbonyl)pyrimidin-4-yl]amino}-3-fluoro-2-hydroxycyclopentyl]methyl sulfamate or [(1R,2R,3R,4R)-4-{([5-({4-[(1S)-3,4-dihydro-1H-isochromen-l-yl]-5-methyl-2-thienyl}carbonyl)pyrimidin-4-yl]amino}-3-fluoro-2-hydroxycyclopentyl]methyl sulfamate] was tested, and the “Percent Inhibition” value was 99 and the IC50 was < 0.01 µM.

With `Cc1oc(C(=O)c2cncnc2N[C@@H]2C[C@H](COS(N)(=O)=O)[C@@H](O)C2)cc1C1OCCc2ccccc21` (single isomer, unassigned) [I-272a, {(1R,2S,4R)-4-[(5-{4-[(1R)-3,4-dihydro-1H-isochromen-1-yl]-5-methyl-2-furoyl}pyrimidin-4-yl)amino]-2-hydroxycyclopentyl}methyl sulfamate or {(1R,2S,4R)-4-[(5-{4-[(1S)-3,4-dihydro-1H-isochromen-1-yl]-5-methyl-2-furoyl}pyrimidin-4-yl)amino]-2-hydroxycyclopentyl}methyl sulfamate] the “Percent Inhibition” value was 96 and the IC50 was < 0.01 µM.

For `Cc1oc(C(=O)c2cncnc2N[C@@H]2C[C@H](COS(N)(=O)=O)[C@@H](O)C2)cc1C1OCCc2ccccc21` (single isomer, unassigned) [I-272b, {(1R,2S,4R)-4-[(5-{4-[(1R)-3,4-dihydro-1H-isochromen-1-yl]-5-methyl-2-furoyl}pyrimidin-4-yl)amino]-2-hydroxycyclopentyl}methyl sulfamate or {(1R,2S,4R)-4-[(5-{4-[(1S)-3,4-dihydro-1H-isochromen-1-yl]-5-methyl-2-furoyl}pyrimidin-4-yl)amino]-2-hydroxycyclopentyl}methyl sulfamate], the “Percent Inhibition” value was 97 and the IC50 was < 0.01 µM.

For `NS(=O)(=O)OC[C@H]1C[C@@H](Nc2ncncc2C(=O)c2cc([C@@H]3OCCc4cc(F)c(F)cc43)cs2)C[C@@H]1O` (single isomer, unassigned) [I-273, [(1R,2S,4R)-4-{[5-({4-[(1R)-6,7-Difluoro-3,4-dihydro-1H-isochromen-1-yl]-2-thienyl}carbonyl)pyrimidin-4-yl]amino}-2-hydroxycyclopentyl]methyl sulfamate or [(1R,2S,4R)-4-{[5-({4-[(1S)-6,7-Difluoro-3,4-dihydro-1H-isochromen-1-yl]-2-thienyl}carbonyl)pyrimidin-4-yl]amino}-2-hydroxycyclopentyl]methyl sulfamate], the “Percent Inhibition” value was 99 and the IC50 was < 0.01 µM.
